The results in this text go back to patent US20240025891A1 (Celgene Corporation, priority 2020, published 2024).

The test concerns Onchocerca gutturosa adult male worms. The test can be described thus: Onchocerciasis in vitro screening model Onchocerca gutturosa (worm motility score and MTT/formazan colorimetry). As to conditions: Onchocerca gutturosa, read-out: O. gutt Act class.
`CN(C)C(=O)C1CCCN(c2ccc(Nc3nc(-c4ccccn4)cs3)nc2)C1` (stereo not drawn) [Example 158, N,N-dimethyl-1-(6-(4-(pyridin-2-yl)thiazol-2-ylamino)pyridin-3-yl)piperidine-3-carboxamide]: the IC50 was under 0.2 µM.
Take `CNC(=O)C1CCCN(c2ccc(Nc3nc(-c4ccccn4)cs3)nc2)C1` (stereo not drawn) [Example 159, N-methyl-1-(6-(4-(pyridin-2-yl)thiazol-2-ylamino)pyridin-3-yl)piperidine-3-carboxamide]: the IC50 was in the range of 0.2 to 0.5 µM.
Take `O=C(NCC(F)(F)F)C1CCCN(c2ccc(Nc3nc(-c4ccccn4)cs3)nc2)C1` (stereo not drawn) [Example 160, 1-(6-(4-(pyridin-2-yl)thiazol-2-ylamino)pyridin-3-yl)-N-(2,2,2-trifluoroethyl) piperidine-3-carboxamide]: the IC50 is under 0.2 µM.
Take `Cn1cc(-c2ccnc(Nc3nc(-c4ccccn4)cs3)c2)cn1` [Example 161, N-(4-(1-methyl-1H-pyrazol-4-yl)pyridin-2-yl)-4-(pyridin-2-yl)thiazol-2-amine]: the IC50 is under 0.2 µM.
For `Cc1sc(Nc2cc(C(F)(F)F)ccn2)nc1-c1ccccn1` [Example 162, 5-methyl-4-(pyridin-2-yl)-N-(4-(trifluoromethyl)pyridin-2-yl) thiazol-2-amine], the IC50 is under 0.2 µM.
The result for `FC(F)(F)c1ccnc(Nc2nc(-c3ccccn3)c(CN3CCCCC3)s2)c1` [Example 164, 5-(piperidin-1-ylmethyl)-4-(pyridin-2-yl)-N-(4-(trifluoromethyl)pyridin-2-yl)thiazol-2-amine] reads under 0.2 µM.
The result for `OCc1sc(Nc2cc(C(F)(F)F)ccn2)nc1-c1ccccn1` [Example 165, (4-(pyridin-2-yl)-2-(4-(trifluoromethyl)pyridin-2-ylamino)thiazol-5-yl)methanol] reads under 0.2 µM; that for `FC(F)(F)c1ccnc(Nc2nc(-c3ccccn3)c(COCC3CC3)s2)c1` [Example 166, 5-((cyclopropyl-methoxy)methyl)-4-(pyridin-2-yl)-N-(4-(trifluoromethyl)pyridin-2-yl) thiazol-2-amine], 0.2 to 0.5 µM; that for `CCCCc1ccnc(Nc2nc(-c3ccccn3)cs2)c1` [Example 167, N-(4-butylpyridin-2-yl)-4-(pyridin-2-yl)thiazol-2-amine], under 0.2 µM.
Consider `c1ccc(-c2csc(Nc3cc(C4CCC4)ccn3)n2)nc1` [Example 168, N-(4-cyclobutyl-pyridin-2-yl)-4-(pyridin-2-yl)thiazol-2-amine], for which the IC50 is under 0.2 µM.
Take `c1ccc(-c2csc(Nc3cc(-c4cccnn4)ccn3)n2)nc1` [Example 169, N-(4-(pyridazin-3-yl)pyridin-2-yl)-4-(pyridin-2-yl)thiazol-2-amine]: the IC50 is under 0.2 µM.
`O=C(NC1CC1)c1ccnc(Nc2nc(-c3ccccn3)cs2)c1` [Example 170, N-cyclopropyl-2-(4-(pyridin-2-yl)thiazol-2-ylamino) isonicotinamide]: the IC50 was under 0.2 µM.
As for `CNC(=O)c1ccc(-c2ccnc(Nc3nc(-c4ccccn4)cs3)c2)cc1` [Example 171, N-methyl-4-(2-(4-(pyridin-2-yl)thiazol-2-ylamino)pyridin-4-yl)benzamide], the IC50 is under 0.2 µM.
As to `CCCc1ccnc(Nc2nc(-c3ccccn3)cs2)c1` [Example 172, N-(4-propylpyridin-2-yl)-4-(pyridin-2-yl)thiazol-2-amine], the IC50 was in the range of 0.2 to 0.5 µM.
As to `c1ccc(-c2csc(Nc3cc(-c4cnccn4)ccn3)n2)nc1` [Example 173, N-(4-(pyrazin-2-yl)pyridin-2-yl)-4-(pyridin-2-yl)thiazol-2-amine], the IC50 is under 0.2 µM.
Consider `c1ccc(-c2csc(Nc3cc(-c4ncccn4)ccn3)n2)nc1` [Example 174, 4-(pyridin-2-yl)-N-(4-(pyrimidin-2-yl)pyridin-2-yl)thiazol-2-amine], for which the IC50 was 0.2 to 0.5 µM.
Regarding `c1ccc(-c2csc(Nc3cc(-c4cccc5ccccc45)ccn3)n2)nc1` [Example 175, N-(4-(naphthalen-1-yl)pyridin-2-yl)-4-(pyridin-2-yl)thiazol-2-amine], the IC50 is under 0.2 µM.
Regarding `c1ccc(-c2csc(Nc3cc(C4CC4)ccn3)n2)nc1` [Example 176, N-(4-cyclopropyl-pyridin-2-yl)-4-(pyridin-2-yl)thiazol-2-amine], the IC50 is under 0.2 µM.
Consider `O=C(NCC1CC1)c1ccnc(Nc2nc(-c3ccccn3)cs2)c1` [Example 177, N-(cyclopropyl-methyl)-2-(4-(pyridin-2-yl)thiazol-2-ylamino) isonicotinamide], for which the IC50 was in the range of 0.5 to 5 µM.
The same measure for `CCNC(=O)c1ccnc(Nc2nc(-c3ccccn3)cs2)c1` [Example 178, N-ethyl-2-(4-(pyridin-2-yl)thiazol-2-ylamino) isonicotinamide]: under 0.2 µM; for `O=C(NC1CC(F)(F)C1)c1ccnc(Nc2ncc(-c3ccccn3)s2)c1` [Example 179, N-(3,3-difluoro-cyclobutyl)-2-(5-(pyridin-2-yl)thiazol-2-ylamino) isonicotinamide]: under 0.2 µM; for `Cc1ccnc(Nc2nc(-c3ccccn3)c(CCOC3CCC3)s2)c1` [Example 180, 5-(2-cyclobutoxy-ethyl)-N-(4-methylpyridin-2-yl)-4-(pyridin-2-yl)thiazol-2-amine]: under 0.2 µM.
Consider `Cc1ccnc(Nc2nc(-c3ccccn3)c(C(C)(C)C)s2)c1` [Example 181, 5-tert-butyl-N-(4-methylpyridin-2-yl)-4-(pyridin-2-yl)thiazol-2-amine], for which the IC50 was 0.2 to 0.5 µM.
The result for `Cc1ccnc(Nc2nc(-c3ccccn3)c(COCC3CCC3)s2)c1` [Example 182, 5-((cyclobutyl-methoxy)methyl)-N-(4-methylpyridin-2-yl)-4-(pyridin-2-yl)thiazol-2-amine] reads 0.2 to 0.5 µM; that for `Cc1ccnc(Nc2nc(-c3ccccn3)c(CN3CCC3)s2)c1` [Example 183, 5-(azetidin-1-ylmethyl)-N-(4-methylpyridin-2-yl)-4-(pyridin-2-yl)thiazol-2-amine], under 0.2 µM.
The same measure for `CCc1sc(Nc2cc(C)ccn2)nc1-c1ccccn1` [Example 184, 5-ethyl-N-(4-methylpyridin-2-yl)-4-(pyridin-2-yl)thiazol-2-amine]: under 0.2 µM; for `Cc1ccnc(Nc2nc(-c3ccccn3)c(CN3CCCC3)s2)c1` [Example 185, N-(4-methylpyridin-2-yl)-4-(pyridin-2-yl)-5-(pyrrolidin-1-ylmethyl) thiazol-2-amine]: 0.2 to 0.5 µM.
Consider `Cc1sc(Nc2cc(C(F)(F)F)c(C(C)C)cn2)nc1-c1ccccn1` [Example 186, N-(5-isopropyl-4-(trifluoromethyl)pyridin-2-yl)-5-methyl-4-(pyridin-2-yl)thiazol-2-amine], for which the IC50 was under 0.2 µM.
On to `C[C@@H]1CN(C(=O)c2sc(Nc3cc(C(F)(F)F)ccn3)nc2-c2ccccn2)C[C@H](C)O1` [Example 187, ((2S,6R)-2,6-dimethyl-morpholino) (4-(pyridin-2-yl)-2-(4-(trifluoromethyl)pyridin-2-ylamino)thiazol-5-yl)methanone], for which the IC50 is under 0.2 µM.
On to `C[C@@H]1CN(Cc2sc(Nc3cc(C(=O)NCC(F)(F)F)ccn3)nc2-c2ccccn2)C[C@H](C)O1` [Example 188, 2-(5-(((2S,6R)-2,6-dimethyl-morpholino)methyl)-4-(pyridin-2-yl)thiazol-2-ylamino)-N-(2,2,2-trifluoroethyl) isonicotinamide], for which the IC50 was under 0.2 µM.
